# Experimental data: patent publication US6265402A, “Use of 2-phenylmorpholin-5-one derivatives” (Nikken Chemicals Co., Ltd., priority 1996, dated 2001)
# Test system: antigen-induced bronchospasms
# Experiment: Inhibitory effect on Antigen-Induced Bronchospasm (Anti-Asthmatic action)
# Format: in vivo
# Details: Cavia porcellus; Hartley male guinea pig sensitized with Ovalbumin; intravenous, 10 minutes before 0.2 mg/kg OA i.v.; Konzett-Roessler method; read-out: Action for suppressing antigen-induced bronchospasms ED50
# Experimental: Inhibitory effect on Antigen-Induced Bronchospasm (Anti-Asthmatic action)
# A Hartley male guinea pig was sensitized by intramuscular administration of 35 mg Ovalbumin (OA) on first day and fourth day. A tracheal canula was introduced in the guinea pig anesthetized with pentobarbital and artificial ventilation was performed 25 to 29 days after the first sensitization. The overflow of the ventilation was measured by the Konzett-Roessler method while 0.2 mg/kg OA were administered intravenously. The test compound was dissolved in polyethylene glycol 400 and intravenously administered 10 minutes before administration of the antigens.
row,Structure (SMILES),ED50 [mg/kg]
1,"CCCCOc1cc(C2CNC(=O)CO2)ccc1OC (stereo not shown) [Compound No. 5, 2-(3-butoxy-4-methoxyphenyl)morpholin-5-one]",3.6
2,"COc1ccc(C2CNC(=O)CO2)cc1OCC1CC1 (stereo not shown) [Compound No. 8, 2-(3-cyclopropylmethoxy-4-methoxyphenyl)morpholin-5-one]",4.31

# Test system: Type IV PDE
# Experiment: Type IV PDE inhibitory activity
# Format: biochemical
# Details: Type IV PDE partially purified from rat neutrophils; 3H-cAMP substrate, 30° C., 30 minutes
# Experimental: Type I, III, IV, and V PDE isozymes were prepared to study the PDE inhibitory activities of and selectivities with the compound of the invention [Trends Pharmacol Sci., 12, 19-27 (1992)]. Type I PDE was purchased from Sigma Corp. Type III, IV, and V PDE isozymes were partially purified from platelets (Type III and V) or neutrophils (Type IV) collected from rats. Each enzyme source was homogenized in a buffer (pH 6.5) containing 20 mM bisTris, 2 mM EDTA (i.e., ethylenediamine tetraacetate), 0.1 mM PMSF (i.e., phenylmethylsulfonyl fluoride), 5 mM 2-mercaptoethanol, 0.001 mM pepstatin and 0.01 mM leupeptin and was centrifuged at 30000×G for 30 minutes to obtain a supernatant, which was applied to an ion exchange column (Q-sepharose First Flow, Pharmacia Corp.) and was eluted with 0 to 1M sodium acetate. Partially purified isozymes were identified by observing the effects by conventional inhibitors.
# Each PDE isozyme and the test compound dissolved in DMSO (i.e., dimethyl sulfoxide) were added to 50 mM Tris-HCl buffer containing 5 mM magnesium chloride. ^3 H-cAMP (for type III and IV PDE) or ^3 H-cGMP (for type I and V PDE) were added as substrates and were reacted at 30° C. for 30 minutes. The reaction was terminated by placing the test tube in boiling water of 100° C. for 5 minutes. The nucleotides formed by PDE were broken down by 5'-nucleotidase to ^3 H-adenosine or 3H-guanosine. The unreacted substrate and reaction product were separated through an ion-exchange column (i.e., QAE sephadex, Pharmacia Corp.) The eluted ^3 H-nucleoside was measured for its radioactivity by a liquid scintillation counter. The inhibitory activities of the compound of the present invention are shown by the IC50 value (M). Further, the inhibitory activities of the test samples against Type I, III, and V are 1/10 or less than that against type IV.
row,Structure (SMILES),IC50 [nM]
1,"COc1ccc(C2CNC(=O)CO2)cc1O[C@H]1CC[C@H](c2ccccc2)CC1 (relative stereo) [Compound No. 33, 2-[4-methoxy-3-(trans-4-phenylcyclohexyloxy)phenyl]morpholin-5-one]",7200
2,"COc1ccc(C2CN(C)C(=O)CO2)cc1O[C@H]1CC[C@H](c2ccccc2)CC1 (relative stereo) [Compound No. 45, 2-[4-methoxy-3-(trans-4-phenylcyclohexyloxy)phenyl]-4-methylmorpholin-5-one]",580
3,"COc1ccc(C2CNC(=O)CO2)cc1OCc1ccccc1 (stereo not shown) [Compound No. 3, 2-(3-benzyloxy-4-methoxyphenyl)morpholin-5-one]",28000
4,"COc1ccc(C2CNC(=O)CO2)cc1OCCc1ccccc1 (stereo not shown) [Compound No. 4, 2-(4-methoxy-3-phenethyloxyphenyl)morpholin-5-one]",2700
5,"CCCCOc1cc(C2CNC(=O)CO2)ccc1OC (stereo not shown) [Compound No. 5, 2-(3-butoxy-4-methoxyphenyl)morpholin-5-one]",12000
6,"COc1ccc(C2CNC(=O)CO2)cc1OC1Cc2ccccc2C1 (stereo not shown) [Compound No. 6, 2-[3-(2-indanyloxy)-4-methoxyphenyl]morpholin-5-one]",320
7,"COc1ccc(C2CNC(=O)CO2)cc1OC1CCCCC1 (stereo not shown) [Compound No. 7, 2-(3-cyclohexyloxy-4-methoxyphenyl)morpholin-5-one]",11000
8,"COc1ccc(C2CNC(=O)CO2)cc1OCC1CC1 (stereo not shown) [Compound No. 8, 2-(3-cyclopropylmethoxy-4-methoxyphenyl)morpholin-5-one]",2500
9,"COc1ccc(C2(C)CNC(=O)CO2)cc1OC1CCCC1 (stereo not shown) [Compound No. 10, 2-(3-cyclopentyloxy-4-methoxyphenyl)-2-methylmorpholin-5-one]",3000
10,"COc1ccc(C2(c3ccccc3)CNC(=O)CO2)cc1OC1CCCC1 (stereo not shown) [Compound No. 11, 2-(3-cyclopentyloxy-4-methoxyphenyl)-2-phenylmorpholin-5-one]",74
11,"COc1ccc(C2CN(C)C(=O)CO2)cc1OC (stereo not shown) [Compound No. 12, 2-(3.4-dimethoxyphenyl)-4-methylmorpholin-5-one]",4700
12,"CCOC(=O)CN1CC(c2ccc(OC)c(OC3CCCC3)c2)OCC1=O (stereo not shown) [Compound No. 15, 2-(3-cyclopentyloxy-4-methoxyphenyl)-4-ethoxycarbonylmethylmorpholin-5-one]",7900
13,"COc1ccc(C2CN(Cc3ccncc3)C(=O)CO2)cc1OC1CCCC1 (stereo not shown) [Compound No. 16, 2-(3-cyclopentyloxy-4-methoxyphenyl)-4-(4-pyridylmethyl)morpholin-5-one]",5500
14,"CCN1CC(c2ccc(OC)c(OC3CCCC3)c2)OCC1=O (stereo not shown) [Compound No. 17, 2-(3-cyclopentyloxy-4-methoxyphenyl)-4-ethylmorpholin-5-one]",710
15,"COc1ccc(C2CN(Cc3ccc4ccccc4n3)C(=O)CO2)cc1OC1CCCC1 (stereo not shown) [Compound No. 18, 2-(3-cyclopentyloxy-4-methoxyphenyl)-4-(2-quinolylmethyl)morpholin-5-one]",450
16,"CCCCN1CC(c2ccc(OC)c(OC3CCCC3)c2)OCC1=O (stereo not shown) [Compound No. 19, 4-butyl-2-(3-cyclopentyloxy-4-methoxyphenyl)morpholin-5-one]",5900
17,"COc1ccc(C2CN(C(C)=O)C(=O)CO2)cc1OC1CCCC1 (stereo not shown) [Compound No. 20, 4-acetyl-2-(3-cyclopentyloxy-4-methoxyphenyl)morpholin-5-one]",2000
18,"COc1ccc(C2CN(C)C(=O)CO2)cc1OC1Cc2ccccc2C1 (stereo not shown) [Compound No. 21, 2-[3-(2-indanyloxy)-4-methoxyphenyl]-4-methylmorpholin-5-one]",44
19,"COc1ccc(C2(c3ccccc3)CN(C)C(=O)CO2)cc1OC1CCCC1 (stereo not shown) [Compound No. 22, 2-(3-cyclopentyloxy-4-methoxyphenyl)-4-methyl-2-phenylmorpholin-5-one]",250
20,"COc1ccc(C2(c3ccccc3)CN(Cc3ccncc3)C(=O)CO2)cc1OC1CCCC1 (stereo not shown) [Compound No. 23, 2-(3-cyclopentyloxy-4-methoxyphenyl)-2-phenyl-4-(4-pyridylmethyl)morpholin-5-one]",2400
21,"COc1ccc(C2(c3ccccc3)CNC(=O)CO2)cc1OC1Cc2ccccc2C1 (stereo not shown) [Compound No. 24, 2-[3-(2-indanyloxy)-4-methoxyphenyl]-2-phenylmorpholin-5-one]",30

row,Structure (SMILES),IC50 [nM]
1,"COc1ccc(C2(c3ccccc3)CN(C)C(=O)CO2)cc1OC1Cc2ccccc2C1 (stereo not shown) [Compound No. 25, 2-[3-(2-indanyloxy)-4-methoxyphenyl]-4-methyl-2-phenylmorpholin-5-one]",110
2,"COc1ccc(C2CNC(=O)CO2)cc1OCCCCCc1ccccc1 (stereo not shown) [Compound No. 26, 2-[4-methoxy-3-(5-phenylpentyloxy)phenyl]morpholin-5-one]",620
3,"COc1ccc(C2(C)CN(C)C(=O)CO2)cc1OC1Cc2ccccc2C1 (stereo not shown) [Compound No. 28, 2.4-dimethyl-2-[3-(2-indanyloxy)-4-methoxyphenyl]morpholin-5-one]",30
4,"COc1ccc(C2CN(C)C(=O)CO2)cc1OCCCCCc1ccccc1 (stereo not shown) [Compound No. 29, 2-[4-methoxy-3-(5-phenylpentyloxy)phenyl]-4-methylmorpholin-5-one]",480
5,"COc1ccc(C2CNC(=O)CO2)cc1OCCOCc1ccccc1 (stereo not shown) [Compound No. 30, 2-[3-[2-(benzyloxy)ethoxy]-4-methoxyphenyl]morpholin-5-one]",5700
6,"COc1ccc(C2CNC(=O)CO2)cc1OCCc1ccc(F)cc1 (stereo not shown) [Compound No. 32, 2-[3-[2-(4-fluorophenyl)ethoxy]-4-methoxyphenyl]morpholin-5-one]",1700
7,"COc1ccc(C2CNC(=O)CO2)cc1OCC1(c2ccccc2)CC1 (stereo not shown) [Compound No. 34, 2-[4-methoxy-3-[(1-phenylcyclopropyl)methoxy]phenyl]morpholin-5-one]",1900
8,"COc1ccc(C2CNC(=O)CO2)cc1OCCc1cccc2ccccc12 (stereo not shown) [Compound No. 37, 2-[4-methoxy-3-[2-(1-naphthyl)ethoxy]phenyl]morpholin-5-one]",2700
9,"CCN1CC(c2ccc(OC)c(OC3Cc4ccccc4C3)c2)OCC1=O (stereo not shown) [Compound No. 40, 4-ethyl-2-[3-(2-indanyloxy)-4-methoxyphenyl]morpholin-5-one]",93
10,"COc1ccc(C2CN(C)C(=O)CO2)cc1OCCc1ccc(F)cc1 (stereo not shown) [Compound No. 41, 2-[3-[2-(4-fluorophenyl)ethoxy]-4-methoxyphenyl]-4-methylmorpholin-5-one]",380
11,"COc1ccc(C2CN(C)C(=O)CO2)cc1OCC1(c2ccccc2)CC1 (stereo not shown) [Compound No. 42, 2-[3-[(1-phenylcyclopropyl)methoxy]-4-methoxyphenyl]-4-methylmorpholin-5-one]",310
12,COc1ccc(C2CN(C)C(=O)CO2)cc1OCC1(C)CC1 (stereo not shown) [Compound No. 43],610
13,"COc1ccc(C2CN(C)C(=O)CO2)cc1OCC1CCCC1 (stereo not shown) [Compound No. 44, 2-(3-cyclopentylmethoxy-4-methoxyphenyl)-4-methylmorpholin-5-one]",770
14,"COc1ccc(C2CN(C)C(=O)CO2)cc1OCCOCc1ccccc1 (stereo not shown) [Compound No. 46, 2-[4-methoxy-3-(2-benzyloxyethoxy)phenyl]-4-methylmorpholin-5-one]",570
15,COc1ccc(C2CN(C)C(=O)CO2)cc1OCCc1cccc2ccccc12 (stereo not shown) [Compound No. 47],300
16,"COc1ccc(C2CN(C)C(=O)CO2)cc1OCC1CCC1 (stereo not shown) [Compound No. 48, 2-(3-cyclobutylmethoxy-4-methoxyphenyl)-4-methylmorpholin-5-one]",380
17,"COc1ccc(C2CN(C)C(=O)CO2)cc1OCC(C)C (stereo not shown) [Compound No. 49, 2-[3-(2-methylpropoxy)-4-methoxyphenyl]-4-methylmorpholin-5-one]",350
18,"COc1ccc(C2CNC(=O)CO2)cc1OCCC1Cc2ccccc2C1 (stereo not shown) [Compound No. 50, 2-[3-[2-(2-indanyl)ethoxy]-4-methoxyphenyl]morpholin-5-one]",3800
19,"COc1ccc(C2CN(C)C(=O)CO2)cc1OCCC1Cc2ccccc2C1 (stereo not shown) [Compound No. 51, 2-[3-[2-(2-indanyl)ethoxy]-4-methoxvphenyl]-4-methylmorpholin-5-one]",100
20,"COc1ccc(C2CN(C)C(=O)CO2)cc1OCC1CC1 (stereo not shown) [Compound No. 52, 2-(3-cyclopropylmethoxy-4-methoxyphenyl)-4-methylmorpholin-5-one]",2800
